Key:
[1] = Neutralizing agents tested in paint: viscosity, pH, gloss and yellowing compared to AMP-95 (Table 3); design: KU (eq) / ICI (eq): unit not given here; settings: for pH (eq): pH of paint; for ICI (eq) / KU (eq): paint viscosity, 23PVC 50-VOC Vinyl Acrylic Semi-Gloss White, HASE thickener
Excerpt: The neutralizing agents shown in Table 2 were further tested in a paint formulation 23[…] Vinyl Acrylic Semi-Gloss White, using a HASE thickener. Gloss measurements, as well as yellowing were compared to AMP-95.

[2] = Formulations of Table 2 tested in paint for gloss and yellowness (Table 4)
Procedure: The formulations shown in Table 2 were tested in 23PVC50-VOC vinyl acrylic (UCAR379G) white and tested for gloss and yellowness.

Row | Compound | pH (eq) [1] | ICI (eq) [1] | KU (eq) [1] | pH ([2]; pH of paint, 23PVC50-VOC vinyl acrylic (UCAR379G) white) | ICI (eq) ([2]; paint viscosity) | KU (eq) ([2]; paint viscosity)
1 | CC(C)(N)CO [AMP-95, 2-amino-2-methyl-1-propanol, reference compound] | 8.77 | 1.110 | 95.2 | 8.78 | 1.110 | 95.2
2 | NCC(=O)O [Glycine (neutralized w/NaOH), Glycine] | 9.7 | 1.023 | 94 |  |  | 
3 | C[C@H](N)C(=O)O [L-Alanine (neutralized w/NaOH), L-Alanine] | 8.61 | 1.052 | 94.3 |  |  | 
4 | DL-Aspartic Acid Potassium Salt Hemihydrate | 8.54 | 1.046 | 90.8 |  |  | 
